Tests used:
HCC827GR cells = experiment: Marker protein expression in Iressa-resistant HCC827GR lung cancer cells; assay type: cell-based, human
From the text: The HCC827GR cell line is a lung cancer cell line that is resistant to Iressa.

[1] = system: triple negative breast cancer cells; experiment: Tumor marker expression in animal model of triple negative breast cancer, supplement with or without chemotherapeutic drugs; assay type: in vivo, mice; conditions: primary tumor; supplement at low, mid, high dose with Taxol or Adriamycin; drugs alone
[2] = system: triple negative breast cancer cells; experiment: as above; assay type: in vivo, mice
Method: […] Animals were also treated with taxol, taxol and the supplement in combination, adriamycin, adriamycin and the supplement in combination, avastin, and avastin and the supplement in combination.
FIG. 9A depicts a typical study design for animal model studies of this phenomena. Three different supplement formulations were used that provided low (NFS), mid (NFM-containing 1.5 times the Se content of NFS), and high (NFH, containing twice the Se content of NFS) doses of selenium and fish oil. These supplement formulations were provided in combination with a chemotherapeutic drug (such as Taxol or Adriamycin).
As noted above, nutritional supplements can be provided that include different amounts of selenium (Se), and can also be provided with or used in combination with a chemotherapeutic agent.
CD24 and CD29 are markers that are commonly used to determine degree of stem cell character. […] Mice were also treated with taxol, taxol and the supplement in combination, adriamycin, adriamycin and the supplement in combination, avastin, and avastin and the nutritional supplement in combination. […] As in FIG. 9, nutritional supplements containing low, mid, and high amounts of selenium were provided in combination with either avastin or taxol.

[3] = system: A549 human lung cancer sphere cells; experiment: Marker protein expression in stem-cell like A549 sphere cells; assay type: cell-based
From the text: FIG. 7B depicts an exemplary Western blot of PD-L1 expression in stem-cell like sphere cells derived from A549 human lung cancer cells.

[4] = metastatic brain tumor site, different amounts of supplement in combination with Taxol, taxol alone
[5] = tumor, supplement at low, mid, high doses in combination with taxol or avastin, drug alone

COc1cc2ncnc(Nc3ccc(F)c(Cl)c3)c2cc1OCCCN1CCOCC1 [Iressa]
Axl expression (HCC827GR cells; 24 hours of treatment, in either the absence or presence of Iressa): not reduced | Axl expression (HCC827GR cells; 72 hours): no apparent effect | HSP90 expression (HCC827GR cells; 72 hours): no apparent effect | PD-L1 expression (HCC827GR cells; chemotherapy resistant cancer cells): has no effect

COc1cccc2c1C(=O)c1c(O)c3c(c(O)c1C2=O)C[C@@](O)(C(=O)CO)C[C@@H]3O[C@H]1C[C@H](N)[C@H](O)[C@H](C)O1 [adriamycin]
PD-1 expression [1]: increased slightly | PD-L1 expression [1]: no apparent effect

CC(=O)O[C@H]1C(=O)[C@@]2(C)[C@H]([C@H](OC(=O)c3ccccc3)[C@]3(O)C[C@H](OC(=O)[C@H](O)[C@@H](NC(=O)c4ccccc4)c4ccccc4)C(C)=C1C3(C)C)[C@]1(OC(C)=O)CO[C@@H]1C[C@@H]2O [taxol]
CD24 expression [2, 4]: no apparent effect | CD29 expression [2, 4]: no apparent effect | MMP-9 expression [2, 4]: no apparent effect | VEGF expression [2, 4]: no apparent effect | EGFR expression ([2]; tumor tissue, supplement with different amounts of selenium co-treated with taxol or avastin, drug alone): not impacted | PTEN expression [2, 5]: increase induced by taxol | p-PTEN expression [2, 5]: decrease induced by either taxol or avastin | p-STAT3 expression [2, 5]: decrease induced by either taxol or avastin | PD-1 expression [1]: increased slightly | PD-L1 expression [1]: no apparent effect

avastin: chemotherapeutic agent used in the animal tumor model
CXCR4 expression ([2]; tumor tissue, avastin alone or cotherapy with supplement at low, mid, high doses): little effect | p-PTEN expression [2, 5]: decrease induced by either taxol or avastin | p-STAT3 expression [2, 5]: decrease induced by either taxol or avastin

selenium
p-HSP27 expression [3]: not found | vimentin expression [3]: not seen
